# Assay results published in the Deep4Chem optical property database.
# Values joined by “and” are separate entries in the source; they are usually repeats but may differ in a detail not shown here. Identical values can stand only once.
# Assay: solvent given as SMILES
compound,measurement,setting,value
CC(C)(C)NC(=O)c1ccc(-c2ccc(N3c4ccccc4Oc4ccccc43)cc2)c2ccc3c4ccc(F)cc4c4cc(F)ccc4c3c12,absorption maximum,in ClCCl,331 nm
CC(C)(C)c1ccc(C2=C(c3ccc(C(C)(C)C)cc3)[Si](c3ccccc3)(c3ccccc3)c3ccccc32)cc1,absorption maximum,in C1CCOC1,341 nm
CCCCN1C(=O)c2cccc3c(C#CC#Cc4ccc5c6c(cccc46)C(=O)N(CCCC)C5=O)ccc(c23)C1=O,absorption maximum,in ClCCl,372 nm
Cc1ccc(-n2c(C)ccc2C)cc1,absorption maximum,in CC#N,234 nm
same,absorption maximum,in CCCCCC,238 nm
O=c1oc2ccccc2cc1-c1ccc([N+](=O)[O-])cc1,absorption maximum,in C1CCOC1,331 nm
same,absorption maximum,in CC#N,336 nm
same,absorption maximum,in CS(C)=O,344 nm
same,absorption maximum,in ClC(Cl)Cl,341 nm
COc1ccccc1-c1cc2c(o1)=CC1=Cc3cc4oc(-c5ccccc5OC)cc4n3[B-](F)(F)[N+]=21,absorption maximum,in ClC(Cl)Cl,671 nm
C[n+]1ccn(CCCCc2ccc3c(c2)c2ccccc2n3-c2cc(C#N)c(C#N)cc2F)c1,absorption maximum,in CC#N,350.79 nm
F[B-]1(F)N2C(=Nc3cccc4cccc2c34)c2cccc[n+]21,absorption maximum,in CC#N,350 nm
same,absorption maximum,in CO,348 nm
same,absorption maximum,in CS(C)=O,351 nm
same,absorption maximum,in Cc1ccccc1,354 nm
CC(C)Nc1cc2oc3cc(NC(C)C)c(F)cc3c(=O)c2cc1F,absorption maximum,in CCO,370 nm
CCN(CC)c1ccc(-c2nc3cc(C(NC(=O)OC(C)(C)C)C(=O)OC)ccc3o2)c(O)c1 (centres undefined),absorption maximum,in CC1CCCCC1,364 nm
same,absorption maximum,in CC#N,364 nm
same,absorption maximum,in CO,364 nm
CC(C)(C)c1ccc2c(c1)c1cc(C(C)(C)C)ccc1n2-c1ccc(C(=C(C#N)C#N)c2ccc(-n3c4ccc(C(C)(C)C)cc4c4cc(C(C)(C)C)ccc43)cc2)cc1,absorption maximum,in Cc1ccccc1,438 nm
COc1cccc(/C=C/c2ccccc2)c1,absorption maximum,in CC#N,295 nm
CN(C)c1ccc2cc(C3=[O+][B-](F)(F)OC(c4ccccc4)=C3)ccc2c1,absorption maximum,in C1CCOC1,492 nm
same,absorption maximum,in CC#N,503 nm
same,absorption maximum,in CC(C)=O,498 nm
same,absorption maximum,in CS(C)=O,520 nm
same,absorption maximum,in Cc1ccccc1,489 nm
same,absorption maximum,in ClC(Cl)Cl,500 nm
same,absorption maximum,in ClCCl,504 nm
CCCCCCOc1cc(/C=C2\C(=O)c3ccccc3C2=C(C#N)C#N)c(OCCCCCC)cc1/C=C1\C(=O)c2ccccc2C1=C(C#N)C#N,absorption maximum,in ClCCl,548 nm
COc1ccc2cc(/C=C/c3ccc([N+](=O)[O-])cc3)c(=O)oc2c1,absorption maximum,in CC#N,392 nm
O=C(O)CCCCCNC(=O)c1cccc2c(=O)c3ccccc3[nH]c12,absorption maximum,in O,409 nm
CC1=CC(C)=[N+]2C1=C(c1ccc(-c3c4ccccc4c(-c4ccccc4)c4ccccc34)cc1)c1c(C)cc(C)n1[B-]2(F)F,absorption maximum,in CC#N,499 nm
same,absorption maximum,in CCCCCC,502 nm
same,absorption maximum,in CCO,500 nm
same,absorption maximum,in CN(C)C=O,500 nm
same,absorption maximum,in Cc1ccccc1,504 nm
same,absorption maximum,in ClCCl,502 nm
CCCCC(CC)COc1ccc2nc(-c3ccc(-c4ccc(OC)cc4)s3)sc2c1 (centres undefined),absorption maximum,in ClCCl,365 nm
c1ccc(-c2nn(-c3ccccc3)c3nc4ccc(N(c5ccccc5)c5ccccc5)cc4cc23)cc1,absorption maximum,in C1CCCCC1,452.08 nm
same,absorption maximum,in C1CCOC1,450.05 nm
same,absorption maximum,in CC#N,447.03 nm
same,absorption maximum,in CC(C)=O,448.03 nm
same,absorption maximum,in CCCCCl,451.06 nm
same,absorption maximum,in CCCCOCCCC,451.06 nm
same,absorption maximum,in CN(C)C=O,450.05 nm
O=c1[nH]c(=O)n([C@@H]2O[C@H](CO)[C@@H](O)[C@H]2O)cc1-c1cc2ccccc2s1,absorption maximum,in C1COCCO1,322 nm
same,absorption maximum,in CC#N,321 nm
same,absorption maximum,in CO,321 nm
same,absorption maximum,in O,318 nm
CSc1nc(-c2ccc(-n3c4ccccc4c4ccccc43)cc2)cc(-c2ccc(-n3c4ccccc4c4ccccc43)cc2)n1,absorption maximum,in C1CCOC1,363 nm
same,absorption maximum,in CN(C)C=O,364 nm
same,absorption maximum,in Cc1ccccc1,364 nm
same,absorption maximum,in ClC(Cl)Cl,364 nm
CCN(CC)c1ccc2cc(/C=C/c3ccccc3)c(=O)oc2c1,absorption maximum,in CC#N,421 nm
c1ccc2c(c1)c1ccccc1n2-c1ccc(-c2ccc(-n3c4ccccc4c4ccccc43)nc2-n2c3ccccc3c3ccccc32)nn1,absorption maximum,in CC#N,335 nm
same,absorption maximum,in Cc1ccccc1,346 nm
same,absorption maximum,in ClCCl,337 nm
CCCCOC(=O)/C(C#N)=C1\C(=O)C([O-])=C1C=C1N(C)c2ccccc2C1(C)C,absorption maximum,in CCO,462 nm
O=C1O[B-]2(OC1=O)OC(c1ccccc1)=CC(c1ccccc1)=[O+]2,absorption maximum,in CC#N,384 nm
same,absorption maximum,in ClC(Cl)(Cl)Cl,384 nm
CCN(CC)c1ccc2cc(-c3csc(NC(C)=O)c3C#N)c(=O)oc2c1,absorption maximum,in CO,404 nm
same,absorption maximum,in CS(C)=O,394 nm
same,absorption maximum,in Cc1ccccc1,402 nm
CCOC(=O)CCCCCn1c2ccccc2c(=O)c2cc(N)ccc21,absorption maximum,in O,405 nm
FC(F)(F)c1ccccc1B1c2ccccc2N(c2ccccc2)c2ccccc21,absorption maximum,in ClCCl,389 nm
CC(C)[Si]1(C(C)C)c2cc(C=O)ccc2-c2ccc(N(C)C)cc21,absorption maximum,in C1CCCCC1,390 nm
same,absorption maximum,in CC#N,391 nm
same,absorption maximum,in CCO,395 nm
same,absorption maximum,in CCOCC,384 nm
same,absorption maximum,in CS(C)=O,400 nm
same,absorption maximum,in ClCCl,397 nm
same,absorption maximum,in c1ccccc1,392 nm
CCC(C)[Si](C#Cc1c2nc3c4ccccc4c(=O)c4ccccc4c3nc2c(C#C[Si](C(C)CC)(C(C)CC)C(C)CC)c2nc3c4ccccc4c(=O)c4ccccc4c3nc12)(C(C)CC)C(C)CC (centres undefined),absorption maximum,in ClCCl,544 nm
N#Cc1c(N2CCCCC2)cc(-c2ccc3ccccc3c2)c2c1Cc1ccccc1-2,absorption maximum,in C1CCOC1,362 nm
O=C(NCc1cc(=O)oc2cc(O)c(Br)cc12)c1cccnc1,absorption maximum,in CC#N,392 nm
same,absorption maximum,in CO,372 nm
same,absorption maximum,in CS(C)=O,408 nm
same,absorption maximum,in O,330 nm
CC1(C)C(/C=C/C2=C(Cl)C(=C/C=C3/N(CCCS(=O)(=O)[O-])c4ccccc4C3(C)C)/CCC2)=[N+](CCCS(=O)(=O)[O-])c2ccccc21,absorption maximum,in CO,778 nm
F[B-]1(F)n2c(NCc3ccccc3)ccc2C(c2c(Cl)cccc2Cl)=C2C=CC(NCc3ccccc3)=[N+]21,absorption maximum,in CC#N,578 nm
same,absorption maximum,in CCCCCC,581 nm
same,absorption maximum,in CCOC(C)=O,580 nm
same,absorption maximum,in CO,579 nm
same,absorption maximum,in ClCCl,581 nm
CC(C)(C(=O)c1ccc(N2c3ccccc3C(C)(C)c3ccccc32)cc1)C(=O)c1ccc(N2c3ccccc3C(C)(C)c3ccccc32)cc1,absorption maximum,in Cc1ccccc1,390 nm
COCCN1C(=O)/C(=C/c2cccc(N(C)C)c2)N=C1C,absorption maximum,in C1CCOC1,353 nm
same,absorption maximum,in CC#N,353 nm
same,absorption maximum,in CCCCCC,352 nm
O=S(=O)([O-])c1cccc2c([O-])cccc12,absorption maximum,in O,346 nm
CC1=C(/C=C/c2ccccc2)C(C)=[N+]2C1=C(c1ccccc1)c1c(C)c(/C=C/c3ccccc3)c(C)n1[B-]2(F)F,absorption maximum,in ClC(Cl)Cl,575 nm
CC1(C)CC(/N=C/c2ccc3ccc4cccc5ccc2c3c45)CC(C)(C)N1,absorption maximum,in C1CCCCC1,360 nm
same,absorption maximum,in CC#N,358 nm
same,absorption maximum,in CO,359 nm
same,absorption maximum,in ClC(Cl)Cl,361 nm
Fc1cc(-c2ccc(-c3nc4ccccc4[nH]3)cc2)ccc1-c1ccc(-c2nc3ccccc3[nH]2)cc1,absorption maximum,in CN(C)C=O,343 nm
CSc1cc(-c2cc3cc4c5c(c3oc2=O)CCCN5CCC4)oc(=O)c1C#N,absorption maximum,in C1CCOC1,532 nm
same,absorption maximum,in CC#N,537 nm
same,absorption maximum,in CC(C)=O,536 nm
same,absorption maximum,in CCOC(C)=O,527 nm
same,absorption maximum,in CN(C)C=O,545 nm
same,absorption maximum,in CO,537 nm
same,absorption maximum,in CS(C)=O,549 nm
same,absorption maximum,in Cc1ccccc1,527 nm
same,absorption maximum,in ClC(Cl)Cl,538 nm
same,absorption maximum,in ClCCl,541 nm
Oc1cccc(/N=C/c2ccccc2Oc2ccccc2)c1,absorption maximum,in C1CCCCC1,322 nm
same,absorption maximum,in C1CCOC1,327 nm
same,absorption maximum,in C1COCCO1,325 nm
same,absorption maximum,in CC#N,328 nm
same,absorption maximum,in CC(C)CO,323 nm
same,absorption maximum,in CC(C)O,324 nm
same,absorption maximum,in CCCCC,318 nm
same,absorption maximum,in CCCCCC,320 nm
same,absorption maximum,in CCCCCCCCO,329 nm
same,absorption maximum,in CCCCCCCO,325 nm
same,absorption maximum,in CCCCCCO,321 nm
same,absorption maximum,in CCCCO,331 nm
same,absorption maximum,in CCCCOC(C)=O,326 nm
same,absorption maximum,in CCCO,328 nm
same,absorption maximum,in CCO,327 nm
same,absorption maximum,in CCOC(C)=O,321 nm
same,absorption maximum,in CCOCC,327 nm
same,absorption maximum,in CN(C)C=O,329 nm
same,absorption maximum,in CO,328 nm
same,absorption maximum,in CS(C)=O,329 nm
same,absorption maximum,in Cc1ccccc1,324 nm
same,absorption maximum,in Cc1ccccc1C,327 nm
same,absorption maximum,in ClC(Cl)Cl,328 nm
same,absorption maximum,in ClCCl,325 nm
same,absorption maximum,in N#Cc1ccccc1,344 nm
same,absorption maximum,in OCCO,328 nm
same,absorption maximum,in c1ccccc1,328 nm
CCN(CC)c1ccc2cc(-c3nc4ccccc4s3)c(=O)oc2c1,absorption maximum,in C1CCCCC1,425.4 nm
same,absorption maximum,in CC1CCCCC1,425.4 nm
same,absorption maximum,in CC#N,454 nm and 447 nm
same,absorption maximum,in CCC(C)CC,425 nm
same,absorption maximum,in CCCCCC,425 nm
same,absorption maximum,in CCO,460 nm
same,absorption maximum,in CCOC(C)=O,439.4 nm
CC(C)(C)c1ccc2c(c1)c1cc(C(C)(C)C)ccc1n2-c1cc(C(=O)c2ccncc2)cc(-n2c3ccc(C(C)(C)C)cc3c3cc(C(C)(C)C)ccc32)c1,absorption maximum,in Cc1ccccc1,396 nm
C(#Cc1cc(C#Cc2ccccc2)c(C#Cc2ccccc2)c(C#Cc2ccccc2)c1C#Cc1ccccc1)c1ccccc1,absorption maximum,in ClCCl,364 nm
Cc1cc(-c2ccc(-n3c4ccccc4c4ccccc43)cc2)nc(-c2ccc(-c3ccccc3)cc2)n1,absorption maximum,in C1CCOC1,341 nm
same,absorption maximum,in CN(C)C=O,341 nm
same,absorption maximum,in Cc1ccccc1,341 nm
same,absorption maximum,in ClC(Cl)Cl,341 nm
CCOC(=O)c1c(-c2cc3ccccc3oc2=O)nn(-c2cccc(F)c2)c1C(=O)OCC,absorption maximum,in ClCCl,324 nm
N#Cc1c(N2CCCCC2)cc(-c2ccccc2)c2c1C(=O)c1ccccc1-2,absorption maximum,in C1CCOC1,348 nm
C[C@@]12SC(Cl)=CC1=c1nc(-c3ccccc3)[nH]c1=C1C=C(Cl)S[C@]12C,absorption maximum,in CC#N,322 nm
O=Cc1ccc2nc(C#Cc3ccc(N(c4ccccc4)c4ccccc4)cc3)sc2c1,absorption maximum,in Cc1ccccc1,411 nm
